Assay results taken from PubChem BioAssay AID977605 (Broad Institute, 2014).
Activity calls are given as the source filed them.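 How the source made its calls: active means fitted curve reaches 40% activation below the top valid tested dose, in every test run; inconclusive means test runs disagree on the call; inactive means the rest, including effects opposite to the expected direction.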

Assay: endothelial E-selectin upregulation by compounds – imaging, HUVEC, cherry-picked samples, dose response (AID 977605);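 further: signal is the share of imaged cells scored positive for E-selectin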
Settings: HUVEC E-selectin immunostaining, at 16 µM (top of the series), percent of TNF-alpha response over vehicle
In the case of `C[C@@H]1CN([C@H](C)CO)C(=O)c2cccc(NC(=O)c3ccncc3)c2O[C@@H]1CN(C)Cc1ccc(C(=O)Nc2ccccc2N)cc1`, the activation is reported as 4.83% (inactive).

Same assay, conditions: HUVEC E-selectin immunostaining, at 19.5 µM (top of the series)
With `Cc1ccc(OC(F)F)c(N2C(=O)C3C4CCC(O4)C3C2=O)c1` (stereo not given) the activation was -0.065% (inactive).

Same assay, conditions: HUVEC E-selectin immunostaining, at 19.5 µM (top of the series), percent of TNF-alpha response over vehicle
In the case of `C[C@@H]1CN([C@@H](C)CO)C(=O)c2cc(NC(=O)NC3CCCCC3)ccc2O[C@@H]1CN(C)Cc1ccc2c(c1)OCO2`, the activation is reported as -0.021% (inactive).
In the case of `COC(=O)c1sc2nc(SCC(=O)N(C)c3ccccc3)n(N)c(=O)c2c1C`, the activation is reported as 1.12% (inactive).
With `Cc1noc(C)c1NC(=O)N(C)C[C@H]1Oc2ccc(NS(=O)(=O)c3cccs3)cc2C(=O)N([C@H](C)CO)C[C@H]1C` the activation was -0.05% (inactive).
With `CNC[C@H]1Oc2ccc(NS(=O)(=O)c3ccc(OC)cc3)cc2CC(=O)N([C@@H](C)CO)C[C@@H]1C` the activation was -0.213% (inactive).
In the case of `COCC(=O)N(C)C[C@H]1Oc2cc(-c3ccc(F)cc3)ccc2S(=O)(=O)N([C@@H](C)CO)C[C@H]1C`, the activation is reported as -0.091% (inactive).
For `C[C@H](CO)N1C[C@H](C)[C@@H](CN(C)S(=O)(=O)c2cccs2)Oc2ccc(NS(=O)(=O)c3ccc(Cl)cc3)cc2CC1=O`, the activation was 0.125% (inactive).
With `C[C@@H]1CN([C@H](C)CO)C(=O)c2cccc(NC(=O)C3CC3)c2O[C@@H]1CN(C)Cc1ccccc1` the activation was 0.474% (inactive).
For `Cc1ccc(S(=O)(=O)Nc2cc(-c3ccccc3)nn2C)cc1Cl`, the activation was -0.007% (inactive).
With `Cc1ccc(O)c([C@H](CCN(C(C)C)C(C)C)c2ccccc2)c1` the activation was -0.269% (inactive).
For `CCCNC(=O)N(C)C[C@@H]1Oc2ncc(C3=CCCC3)cc2C(=O)N([C@H](C)CO)C[C@H]1C`, the activation was 0.267% (inactive).
With `Cc1noc(C)c1S(=O)(=O)Nc1ccc2c(c1)CC(=O)N([C@H](C)CO)C[C@@H](C)[C@H](CN(C)C(=O)Nc1cccc3ccccc13)O2` the activation was -0.155% (inactive).
In the case of `C[C@@H]1CN([C@@H](C)CO)C(=O)c2cccc(NC(=O)Nc3ccc(F)cc3)c2O[C@@H]1CN(C)Cc1ccncc1`, the activation is reported as -0.005% (inactive).
For `C[C@@H]1CN([C@H](C)CO)C(=O)c2cccc(NC(=O)c3ccc(-c4nccs4)cc3)c2O[C@H]1CN(C)Cc1ccc(Oc2ccccc2)cc1`, the activation was 9.5% (inactive).
In the case of `CC(=O)N(C)C[C@@H]1Oc2cc(C#Cc3ccccn3)ccc2S(=O)(=O)N([C@H](C)CO)C[C@@H]1C`, the activation is reported as -0.123% (inactive).
With `CCn1c(SCC(=O)N(C)Cc2ccc(OC)c(F)c2)nc2cc(S(N)(=O)=O)ccc21` the activation was -0.113% (inactive).
With `COc1ccc(NC(=O)N(C)C[C@@H]2Oc3ccc(NC(=O)c4ccncc4)cc3CC(=O)N([C@@H](C)CO)C[C@H]2C)cc1` the activation was -0.088% (inactive).
With `CC(C)NC(=O)N(C)C[C@H]1Oc2ccc(NC(=O)CCN3CCOCC3)cc2C(=O)N([C@@H](C)CO)C[C@H]1C` the activation was -0.017% (inactive).
For `C[C@H](CO)N1C[C@H](C)[C@@H](CN(C)C(=O)NC2CCCCC2)Oc2ccc(NS(=O)(=O)c3ccccc3)cc2C1=O`, the activation was -0.099% (inactive).
With `C[C@@H]1CN([C@@H](C)CO)C(=O)c2cc(NC(=O)Cc3cn(C)c4ccccc34)ccc2O[C@H]1CN(C)Cc1ccc2c(c1)OCO2` the activation was -0.066% (inactive).
In the case of `C[C@H]1CN([C@@H](C)CO)C(=O)c2cc(NC(=O)CCN3CCOCC3)ccc2O[C@H]1CN(C)S(C)(=O)=O`, the activation is reported as -0.165% (inactive).
For `Cc1ccc(CSc2nc3[nH]ncc3c(=O)[nH]2)cc1`, the activation was 24.6% (inactive).
With `C[C@H]1CN([C@@H](C)CO)C(=O)c2cc(N(C)C)ccc2O[C@H]1CN(C)C(=O)Nc1ccc2c(c1)OCO2` the activation was 2.2% (inactive).
For `O=C(CCCn1c(=O)c2ccccc2n(CC(=O)N2CCN(c3ccccc3)CC2)c1=O)NCc1ccco1`, the activation was -0.084% (inactive).
In the case of `C[C@H]1CN([C@@H](C)CO)C(=O)Cc2cc(NC(=O)C3CC3)ccc2O[C@@H]1CN(C)S(=O)(=O)c1cccs1`, the activation is reported as -0.038% (inactive).
For `Cc1ccc(S(=O)(=O)Nc2cc(S(=O)(=O)N3CCCCC3)ccc2N2CCOCC2)cc1`, the activation was 0.047% (inactive).
In the case of `C[C@@H]1CN([C@@H](C)CO)S(=O)(=O)c2ccc(C#CC3CC3)cc2O[C@@H]1CN(C)Cc1cccnc1`, the activation is reported as -0.068% (inactive).
In the case of `O=S(=O)(NCc1cccnc1)c1ccc(Cl)c2ccccc12`, the activation is reported as 0.304% (inactive).
In the case of `CC(C)NC(=O)Nc1cccc2c1O[C@H](CN(C)Cc1ccc(Cl)c(Cl)c1)[C@H](C)CN([C@@H](C)CO)C2=O`, the activation is reported as -0.02% (inactive).
In the case of `C[C@H](CO)N1C[C@H](C)[C@H](CN(C)S(=O)(=O)c2cccs2)Oc2c(NC(=O)Nc3ccccc3)cccc2C1=O`, the activation is reported as 1% (inactive).
With `CCc1cc(C(=O)Nc2nc(-c3ccccn3)cs2)sc1C` the activation was 0.665% (inactive).
In the case of `Cc1ccccc1NC(=O)c1cc(S(=O)(=O)Nc2cccc(C(=O)O)c2)ccc1Cl`, the activation is reported as 0.3% (inactive).
In the case of `C[C@@H]1CN([C@H](C)CO)C(=O)c2cc(C#Cc3cccc(F)c3)cnc2O[C@H]1CN(C)C(=O)C1CCC1`, the activation is reported as 0.008% (inactive).
In the case of `C[C@@H]1CN([C@H](C)CO)C(=O)c2cc(NS(C)(=O)=O)ccc2O[C@H]1CN(C)C(=O)Nc1ccccc1`, the activation is reported as -0.057% (inactive).
In the case of `O=C(O)Cn1cc(C(=O)C(F)(F)F)c2ccccc21`, the activation is reported as 0.43% (inactive).
In the case of `Cc1nc(N2CCN(c3ccccn3)CC2)c2c(C)c(C(=O)Nc3ccc(F)cc3Cl)sc2n1`, the activation is reported as -0.158% (inactive).
For `C[C@@H]1CN([C@H](C)CO)C(=O)c2cc(NC(=O)CCN3CCOCC3)ccc2O[C@@H]1CN(C)Cc1ccncc1`, the activation was -0.14% (inactive).
With `COc1cccc(NC(=O)C2C3C=CC4(O3)C2C(=O)N(CCCN2CCCCC2)C4C(=O)NC2CCCCC2)c1` (stereo not given) the activation was 1.56% (inactive).
For `COc1ccccc1CN1CC(C(=O)N(C)Cc2[nH]c3ccccc3c2C)CCC1=O` (stereo not given), the activation was 0.071% (inactive).
With `C[C@@H]1CN([C@H](C)CO)C(=O)c2cc(N(C)C)ccc2O[C@H]1CN(C)Cc1ccc(C(=O)O)cc1` the activation was -0.039% (inactive).
For `CC(C)NC(=O)Nc1cccc2c1O[C@@H](CN(C)Cc1ccc(C(F)(F)F)cc1)[C@@H](C)CN([C@H](C)CO)C2=O`, the activation was 0.009% (inactive).
For `C[C@H](CO)N1C[C@H](C)[C@@H](CN(C)S(=O)(=O)c2cn(C)cn2)Oc2ccc(NS(=O)(=O)c3ccc(Cl)cc3)cc2C1=O`, the activation was -0.286% (inactive).
In the case of `CC(C)NC(=O)N(C)C[C@@H]1Oc2ccc(NC(=O)CCN3CCOCC3)cc2C(=O)N([C@H](C)CO)C[C@H]1C`, the activation is reported as -0.003% (inactive).
In the case of `CN(CC(=O)Nc1cccc(F)c1)CC(=O)N1CCc2ccccc21`, the activation is reported as 0.11% (inactive).
In the case of `CCOC(=O)c1cccc(NC(=O)c2cc(C)nn2-c2ccccc2)c1`, the activation is reported as 0.657% (inactive).
In the case of `C[C@H](CO)N1C[C@H](C)[C@H](CN(C)C)Oc2ccc(NC(=O)Cc3cn(C)c4ccccc34)cc2C1=O`, the activation is reported as 8.16% (inactive).
For `COc1ccc(S(=O)(=O)N(C)C[C@H]2Oc3ccc(NC(=O)CCCN(C)C)cc3C(=O)N([C@@H](C)CO)C[C@H]2C)cc1`, the activation was 0.162% (inactive).
With `Cc1ccc(S(=O)(=O)N2CCOCC2)cc1C(=O)NC1CCCC1` the activation was -0.154% (inactive).
For `C[C@@H]1CN([C@@H](C)CO)C(=O)Cc2cc(NS(C)(=O)=O)ccc2O[C@H]1CN(C)Cc1ccncc1`, the activation was -0.007% (inactive).
In the case of `C[C@H]1CN([C@@H](C)CO)C(=O)c2cccc(NC(=O)c3nc4ccccc4s3)c2O[C@@H]1CN(C)Cc1ccc(C(F)(F)F)cc1`, the activation is reported as -0.231% (inactive).
In the case of `CNC[C@H]1Oc2ccc(N(C)C)cc2C(=O)N([C@@H](C)CO)C[C@H]1C`, the activation is reported as 0.27% (inactive).
With `C[C@@H]1CN([C@H](C)CO)C(=O)Cc2cc(NS(=O)(=O)c3cccs3)ccc2O[C@@H]1CN(C)Cc1ccc(C(=O)Nc2ccccc2N)cc1` the activation was 1.45% (inactive).
With `C[C@H]1CN([C@@H](C)CO)C(=O)c2cccc(NC(=O)Nc3ccc(F)cc3)c2O[C@H]1CN(C)Cc1ccncc1` the activation was 0.058% (inactive).
For `Cc1noc(C)c1NC(=O)Nc1ccc2c(c1)CC(=O)N([C@@H](C)CO)C[C@H](C)[C@@H](CN(C)C(=O)Nc1ccc(F)cc1)O2`, the activation was -0.02% (inactive).
For `CC(Sc1ncnc2sc(-c3ccccc3)cc12)C(=O)N1CCNC1=O` (stereo not given), the activation was 0.007% (inactive).
In the case of `C/C(=N\NC(=O)c1cc(C(C)C)[nH]n1)c1ccco1`, the activation is reported as 0.133% (inactive).
For `COc1cccc(CNC(=O)CN2C(=O)COc3ccc(S(=O)(=O)N4CCCCCC4)cc32)c1`, the activation was -0.081% (inactive).
With `OC(CSc1ccc(F)cc1)CN1CCN(c2ccccc2)CC1` (stereo not given) the activation was -0.165% (inactive).
In the case of `Cc1cccc(NS(=O)(=O)c2ccc(S(=O)(=O)N3CCCC3)cc2)c1`, the activation is reported as 1.83% (inactive).
With `C[C@@H]1CN([C@H](C)CO)C(=O)Cc2cc(NS(C)(=O)=O)ccc2O[C@H]1CN(C)S(=O)(=O)c1cn(C)cn1` the activation was -0.104% (inactive).
In the case of `Cc1cc(C(=O)Nc2ccc(C)c(C)c2)n(-c2ccccc2)n1`, the activation is reported as 0.076% (inactive).
In the case of `C[C@@H]1CN([C@H](C)CO)C(=O)Cc2cc(NC(=O)Cc3ccccc3)ccc2O[C@H]1CN(C)S(C)(=O)=O`, the activation is reported as -0.135% (inactive).
With `Cc1noc(C)c1NC(=O)N(C)C[C@H]1Oc2ccc(NC(=O)c3ccncc3)cc2C(=O)N([C@H](C)CO)C[C@@H]1C` the activation was -0.129% (inactive).

Same assay, conditions: HUVEC E-selectin immunostaining, at 21 µM (top of the series), percent of TNF-alpha response over vehicle
For `C[C@H](CO)N1C[C@H](C)[C@@H](CN(C)Cc2ccc(Cl)c(Cl)c2)Oc2c(NC(=O)CCCCCC(=O)Nc3ccccc3N)cccc2C1=O`, the activation was 3.2% (inactive).
In the case of `COc1ccc(NC(=O)N(C)C[C@@H]2Oc3ccc(NC(=O)c4ccncc4)cc3CC(=O)N([C@@H](C)CO)C[C@@H]2C)cc1`, the activation is reported as -0.09% (inactive).
In the case of `C[C@@H]1CN([C@@H](C)CO)C(=O)c2cc(NC(=O)Nc3ccc4c(c3)OCO4)ccc2O[C@H]1CN(C)Cc1ccc(-c2ccccc2)cc1`, the activation is reported as 2.77% (inactive).
With `CC(C)NC(=O)N(C)C[C@@H]1Oc2c(NC(=O)c3ccc(-c4nccs4)cc3)cccc2C(=O)N([C@@H](C)CO)C[C@@H]1C` the activation was -0.199% (inactive).
In the case of `CC(C)NC(=O)Nc1cccc2c1O[C@@H](CN(C)Cc1ccc(Cl)c(Cl)c1)[C@@H](C)CN([C@H](C)CO)C2=O`, the activation is reported as 7.29% (inactive).
For `C[C@@H]1CN([C@@H](C)CO)C(=O)c2cc(NS(=O)(=O)c3cn(C)cn3)ccc2O[C@H]1CN(C)C(=O)Nc1ccc(F)cc1`, the activation was 0.066% (inactive).
